Patent US20220357332A1, “TRIPHENYLENE DERIVATIVES FOR USE IN IMAGING BIOLOGICAL TISSUE OR FLUID” (CHROMATWIST LIMITED, priority 2019, published 2022)

Columns and labels:
[1] = Luminescent data (absorption, emission, quantum yield, brightness) in solvents; type: physicochemical
Description: Referring now to Table 1, there is shown luminescent data for Compounds 1 to 6.

[2] = Luminescence data for pairs of compounds absorbing at the same wavelength and emitting at different wavelengths; type: physicochemical; details: for ε × 10^3 (M^−1 cm^−1) at 355 nm / ε × 10^3 (M^−1 cm^−1) at 405 nm / ε × 10^3 (M^−1 cm^−1) at λMax / Absorption λMax / Emission λMax: solvent not given
Description: Referring now to Tables 2 to 4, there is provided luminescence data for pairs of compounds which are capable of absorbing at the same wavelength and emitting at different wavelengths.

[3] = Solubility (statements in words); type: physicochemical
[4] = test system: Huh-7 cells; details: 1 hr, Huh-7 cells labelled with CMFDA
Description: To test the relative toxicity of tetrahydrofuran (THF) for liver cells, Huh-7 cells (hepatoma cell line used for a model of hepatocytes) were labelled with CMFDA (CellTracker Green, in DMSO, Invitrogen) and then treated with half log concentrations of THF (0.1%, 0.3%, 1%, 3%) for 1 hr. Cells were then imaged live using a Zeiss primovert fluorescence microscope.

[5] = test system: human liver; details: 45 min, 1 μg/ml
Experimental: All fluorophores were testing using donated human tissue which had been previously rejected for transplantation. All reagents were diluted in pre-warmed Dulbecos Modified Eagles Medium (DMEM) or CO2-independent media (both Invitrogen) to working concentrations and then perfused into pieces of liver for 45 min. Membrane and nuclear dyes were used simultaneously to visualise other cellular structures within the liver. Tissues were then imaged using multiphoton microscopy (825 nm). All fluorophores were used at 1 μg/ml (giving 0.1% of vehicle, being DMSO or THF). Testing of TpOx-2-Nap (green fluorophore) was done using DMSO as a solvent. […] was used for comparison, having been perfused through a separate piece of tissue from the same donor.

[6] = Acetonitrile (ϵr 37.5, viscosity 0.38 cP)
[7] = Ethyl acetate (ϵr 6.0, viscosity 0.45 cP)
[8] = Octan-1-ol (ϵr 10.3, viscosity 7.36 cP)

SMILES	Absorption λmax [1, 6] [nm]	Brightness [1, 6] [M⁻¹ cm⁻¹]	Emission λmax [1, 6] [nm]	pSS [1, 6] [cm^−1]	Φ [1, 6]	Absorption λmax [1, 7] [nm]	Brightness [1, 7] [M⁻¹ cm⁻¹]	Emission λmax [1, 7] [nm]	pSS [1, 7] [cm^−1]	Φ [1, 7]	Absorption λmax [1, 8] [nm]	Brightness [1, 8] [M⁻¹ cm⁻¹]	Emission λmax [1, 8] [nm]	pSS [1, 8] [cm^−1]	Φ [1, 8]	QY [2]	pSS (cm^−1) [2] [cm^−1]	pSS (nm) [2] [nm]	Absorption % Abs at 355 nm [2] [%]	Absorption % Abs at 405 nm [2] [%]	other results
CCCCCOc1cc2c3cc(OCCCCC)c(OCCCCC)cc3c3c(cc(OCCCCC)c4oc(-c5ccccc5)nc43)c2cc1OCCCCC [Compound 2, 2,3,6,11,12-pentakis(pentyloxy)-8-phenyltriphenyleno[1,2-d]oxazole]	270	38 ± 4	492	16700	0.46 ± 0.04	270	51 ± 5	467	15600	0.46 ± 0.04	271	64 ± 6	473	15800	0.61 ± 0.06	–	–	–	–	–	–
CCCCCOc1cc2c3cc(OCCCCC)c(OCCCCC)cc3c3c(cc(OCCCCC)c4oc(-c5ccc6cc7ccccc7cc6c5)nc43)c2cc1OCCCCC [Compound 5, 8-(anthracen-2-yl)-2,3,6,11,12-pentakis(pentyloxy)triphenyleno[1,2-d]oxazole]	270	–	592	20200	0.21 ± 0.02	272	53 ± 5	536	18100	0.51 ± 0.04	270	50 ± 5	526	18000	0.56 ± 0.05	–	–	–	–	–	–
CCCCCOc1cc2c3cc(OCCCCC)c(OCCCCC)cc3c3c(cc(OCCCCC)c4oc(-c5cccc6ccccc56)nc43)c2cc1OCCCCC [Compound 4, 8-(naphthalen-1-yl)-2,3,6,11,12-pentakis(pentyloxy)triphenyleno[1,2-d]oxazole]	275	30 ± 3	543	18000	0.36 ± 0.04	275	56 ± 5	510	16800	0.48 ± 0.04	275	67 ± 7	515	17000	0.55 ± 0.05	–	–	–	–	–	–
CCCCCOc1cc2c3cc(OCCCCC)c(OCCCCC)cc3c3c(cc(OCCCCC)c4oc(CCCC)nc43)c2cc1OCCCCC [Compound 1, 8-butyl-2,3,6,11,12-pentakis(pentyloxy)triphenyleno[1,2-d]oxazole]	281	12 ± 2	367	8300	0.20 ± 0.02	281	29 ± 5	367	8300	0.18 ± 0.01	281	36 ± 7	367	8300	0.30 ± 0.03	–	–	–	–	–	–
CCCCCOc1cc2c3cc(OCCCCC)c(OCCCCC)cc3c3c(cc(OCCCCC)c4oc(-c5ccc(N(C)C)cc5)nc43)c2cc1OCCCCC [Compound 22, N,N-dimethyl-4-(2,3,6,11,12-pentakis(pentyloxy)triphenyleno[1,2-d]oxazol-8-yl)aniline]	–	–	–	–	–	–	–	–	–	–	–	–	–	–	–	0.70	13150	150	54	2	ε × 10^3 (M^−1 cm^−1) at 355 nm [2]: 39 × 10^3 M^−1 cm^−1; ε × 10^3 (M^−1 cm^−1) at 405 nm [2]: 1.5 × 10^3 M^−1 cm^−1; ε × 10^3 (M^−1 cm^−1) at λMax [2]: 72 × 10^3 M^−1 cm^−1; Absorption λMax [2]: 271 nm; Emission λMax [2]: 421 nm
CCCCCOc1cc2c3cc(OCCCCC)c(OCCCCC)cc3c3c(cc(OCCCCC)c4oc(-c5ccc(OC)cc5)nc43)c2cc1OCCCCC [Compound 45, 8-(4-methoxyphenyl)-2,3,6,11,12-pentakis(pentyloxy)triphenyleno[1,2-d]oxazole]	–	–	–	–	–	–	–	–	–	–	–	–	–	–	–	0.40	14000	174	22	0	ε × 10^3 (M^−1 cm^−1) at 355 nm [2]: 21 × 10^3 M^−1 cm^−1; ε × 10^3 (M^−1 cm^−1) at 405 nm [2]: 0 × 10^3 M^−1 cm^−1; ε × 10^3 (M^−1 cm^−1) at λMax [2]: 97 × 10^3 M^−1 cm^−1; Absorption λMax [2]: 270 nm; Emission λMax [2]: 444 nm
CCCCCOc1cc2c3cc(OCCCCC)c(OCCCCC)cc3c3c(cc(OCCCCC)c4oc(-c5ccc(C#N)cc5)nc43)c2cc1OCCCCC [Compound 12, 4-(2,3,6,11,12-pentakis(pentyloxy)triphenyleno[1,2-d]oxazol-8-yl)benzonitrile]	–	–	–	–	–	–	–	–	–	–	–	–	–	–	–	0.32	18800	286	12	14	ε × 10^3 (M^−1 cm^−1) at 355 nm [2]: 13 × 10^3 M^−1 cm^−1; ε × 10^3 (M^−1 cm^−1) at 405 nm [2]: 14 × 10^3 M^−1 cm^−1; ε × 10^3 (M^−1 cm^−1) at λMax [2]: 103 × 10^3 M^−1 cm^−1; Absorption λMax [2]: 272 nm; Emission λMax [2]: 558 nm
CCCCCOc1cc2c(cc1OCCOCCOCCOC)c1cc(OCCOCCOCCOC)c(OCCOCCOCCOC)cc1c1cc(OCCOCCOCCOC)c3oc(C)nc3c21 [Compound 32, 2,3,6,12-tetrakis(2-(2-(2-methoxyethoxy)ethoxy)ethoxy)-8-methyl-11-(pentyloxy)triphenyleno[1,2-d]oxazole]	–	–	–	–	–	–	–	–	–	–	–	–	–	–	–	–	–	–	–	–	Water solubility ([3]; water): water soluble
CCCCCOc1cc2c3cc(OCCCCC)c(OCCCCC)cc3c3c(cc(OCCCCC)c4oc(-c5c6ccccc6cc6ccccc56)nc43)c2cc1OCCCCC [Compound 6, 8-(anthracen-9-yl)-2,3,6,11,12-pentakis(pentyloxy)triphenyleno[1,2-d]oxazole]	253	–	630	23650	–	253	–	594	22700	–	255	–	384	13200	–	–	–	–	–	–	–
C1CCOC1 [THF, tetrahydrofuran]	–	–	–	–	–	–	–	–	–	–	–	–	–	–	–	–	–	–	–	–	Toxicity for liver cells (cell culture compared to the reference) ([4]; 0.1% and 0.3% THF): no differences in the cell culture compared to the reference; Toxicity for liver cells (dead cells) ([4]; 1% and 3% THF): increasing number of dead cells
CCCCCOc1cc2c3cc(OCCCCC)c(OCCCCC)cc3c3c(cc(OCCCCC)c4oc(-c5ccc6ccccc6c5)nc43)c2cc1OCCCCC [Compound 3, 8-(naphthalen-2-yl)-2,3,6,11,12-pentakis(pentyloxy)triphenyleno[1,2-d]oxazole]	273	44 ± 4	524	17600	0.51 ± 0.05	272	92 ± 9	494	16500	0.55 ± 0.05	272	91 ± 9	497	16600	0.71 ± 0.07	0.55	16500	222	17	7	ε × 10^3 (M^−1 cm^−1) at 355 nm [2]: 29 × 10^3 M^−1 cm^−1; ε × 10^3 (M^−1 cm^−1) at 405 nm [2]: 13 × 10^3 M^−1 cm^−1; ε × 10^3 (M^−1 cm^−1) at λMax [2]: 164 × 10^3 M^−1 cm^−1; Absorption λMax [2]: 272 nm; Emission λMax [2]: 494 nm; Uptake by hepatocytes [5]: Diffuse green fluorescence (12) was observed within the cytoplasm of the hepatocytes; Solubility with DMSO as solvent ([3]; DMSO as a solvent, diluted in medium to 1 μg/ml): limited solubility
